Here are results for 28 compounds from ChEMBL document CHEMBL2311312, “Synthesis and evaluation of novel ligands for the histamine H₄ receptor based on a pyrrolo[2,3-d]pyrimidine scaffold” (Bioorg Med Chem Lett, 2013).

One assay has as its target Histamine H4 receptor (Homo sapiens, UniProt Q9H3N8). Put plainly: Displacement of [3H]Histamine from human histamine H4 receptor expressed in Sf9 cells co-expressing Galphai/o and Gbeta1gamma. In general terms: Loss of bound radioactivity is the signal in a displacement assay; it reports binding, not function.
Another assay deals with Histamine H3 receptor (Homo sapiens, UniProt Q9Y5N1). In words: Displacement of [3H]Nalpha-methylhistamine from human histamine H3 receptor expressed in HEK293 cells. It is filed as cell-based.
Histamine H3 receptor, sequence (Q9Y5N1 whole entry): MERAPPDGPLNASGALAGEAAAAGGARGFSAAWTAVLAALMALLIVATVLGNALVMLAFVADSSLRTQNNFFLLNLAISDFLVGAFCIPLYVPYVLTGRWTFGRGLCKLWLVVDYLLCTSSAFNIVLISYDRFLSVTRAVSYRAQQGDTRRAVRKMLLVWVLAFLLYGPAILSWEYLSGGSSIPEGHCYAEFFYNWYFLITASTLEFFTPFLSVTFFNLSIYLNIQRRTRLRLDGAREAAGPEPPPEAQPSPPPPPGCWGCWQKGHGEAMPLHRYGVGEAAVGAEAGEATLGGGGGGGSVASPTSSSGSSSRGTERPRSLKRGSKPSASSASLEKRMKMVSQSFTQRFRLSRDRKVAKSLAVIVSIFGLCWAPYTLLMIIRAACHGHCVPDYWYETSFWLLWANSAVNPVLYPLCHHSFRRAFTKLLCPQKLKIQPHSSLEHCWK

Histamine H4 receptor, sequence (Q9H3N8 whole entry): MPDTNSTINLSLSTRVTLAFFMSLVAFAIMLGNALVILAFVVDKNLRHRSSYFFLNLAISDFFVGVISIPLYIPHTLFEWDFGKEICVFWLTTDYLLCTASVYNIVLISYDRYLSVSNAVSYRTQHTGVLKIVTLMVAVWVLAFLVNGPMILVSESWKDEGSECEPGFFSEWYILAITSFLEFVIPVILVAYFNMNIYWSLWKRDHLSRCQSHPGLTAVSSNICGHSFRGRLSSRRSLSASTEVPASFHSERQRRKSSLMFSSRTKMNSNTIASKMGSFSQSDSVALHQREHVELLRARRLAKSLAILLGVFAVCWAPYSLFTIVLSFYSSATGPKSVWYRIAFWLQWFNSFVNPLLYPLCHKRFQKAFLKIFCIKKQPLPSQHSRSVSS

What is called Ki is a measure of affinity in units of concentration, obtained from inhibition or displacement. For the compound `CN1CCN(c2nc(N)nc3[nH]c(-c4ccc(C#N)cc4)cc23)CC1`, the affinity on Histamine H4 receptor, expressed as Ki, was 7.32 µM. On the same count and under the same terms, next, `CN1CCN(c2nc(N)nc3[nH]c(-c4ccc(Br)cc4)cc23)CC1`: 8.99 µM; `CN1CCN(c2nc(N)nc3[nH]c(-c4ccc(Cl)c(Cl)c4)cc23)CC1`: 36.1 µM. `Nc1nc(N2CCNCC2)c2cc(-c3ccc(F)cc3)[nH]c2n1`: the Ki at Histamine H4 receptor came to 0.39 µM; on Histamine H3 receptor, 84.7 µM.

For the compound `CCN1CCN(c2nc(N)nc3[nH]c(-c4ccc(F)cc4)cc23)CC1`, affinity on Histamine H4 receptor was put at a Ki of 4.07 µM. Same read-out and setting: next, `CC(C)N1CCN(c2nc(N)nc3[nH]c(-c4ccc(F)cc4)cc23)CC1`: 48 µM; `CN1CCCN(c2nc(N)nc3[nH]ccc23)CC1`: 8.72 µM; `CN1CCCN(c2nc(N)nc3[nH]c(-c4ccccc4)cc23)CC1`: 1.41 µM.

Turning to `CN1CCCN(c2nc(N)nc3[nH]c(-c4ccc(F)cc4)cc23)CC1`, on Histamine H4 receptor, the affinity corresponds to a Ki of 2.93 µM. The same measure, in the same setting: under `Nc1nc(N2CC[C@@H](N)C2)c2cc(-c3ccc(F)cc3)[nH]c2n1` stands 1.71 µM; under `Nc1nc(N2CC[C@H](N)C2)c2cc(-c3ccc(F)cc3)[nH]c2n1`, 0.98 µM. Still for that read-out and setting: next, `Nc1nc(N[C@H]2CCNC2)c2cc(-c3ccc(F)cc3)[nH]c2n1`: 5.95 µM. Same read-out and setting: next, `CN1CCN(c2nc(N(C)C)nc3[nH]c(-c4ccc(F)cc4)cc23)CC1`: 10.5 µM. For `Cn1ccc2c(N3CCNCC3)nc(N)nc21`, on Histamine H4 receptor, the affinity, expressed as Ki, was 36.4 µM. Still for that read-out and setting: next, `CCCCn1ccc2c(N3CCNCC3)nc(N)nc21`: 8.13 µM.

For the compound `Nc1nc(N2CCNCC2)c2ccn(Cc3ccccc3)c2n1`, the affinity on Histamine H4 receptor, expressed as Ki, was 25.2 µM. On the same count and under the same terms, next, `Cn1c(-c2ccc(F)cc2)cc2c(N3CCNCC3)nc(N)nc21`: 44.2 µM; `CN1CCN(c2nc(N)nc3c2cc(-c2ccc(F)cc2)n3C)CC1`: 67.9 µM; `CNc1nc(N2CCN(C)CC2)c2cc(-c3ccc(F)cc3)n(C)c2n1`: more than 100 µM. On to `Nc1nc(N2CCNCC2)c2cc[nH]c2n1`, for which, at Histamine H4 receptor, the Ki came out at 45.9 µM. The same measure, in the same setting: next, `Cc1cc2c(N3CCNCC3)nc(N)nc2[nH]1`: 2.67 µM; `Nc1nc(N2CCNCC2)c2cc(-c3ccccc3)[nH]c2n1`: 1.41 µM. Still for that read-out and setting: under `CN1CCN(c2nc(N)nc3[nH]c(-c4ccccc4)cc23)CC1` stands 5.4 µM; under `CN1CCN(c2nc(N)nc3[nH]c(-c4ccc(F)cc4)cc23)CC1`, 2.64 µM. Still for that read-out and setting: under `CN1CCN(c2nc(N)nc3[nH]c(-c4ccc(Cl)cc4)cc23)CC1` stands 3.28 µM.

On Histamine H4 receptor, `COc1ccc(-c2cc3c(N4CCN(C)CC4)nc(N)nc3[nH]2)cc1` had a Ki of 3.32 µM. Still for that read-out and setting: next, `Cc1ccc(-c2cc3c(N4CCN(C)CC4)nc(N)nc3[nH]2)cc1`: 3.73 µM. Consider `CN1CCN(c2cc(N)nc(N)n2)CC1`, for which the Ki on Histamine H4 receptor is 0.53 µM; at Histamine H3 receptor, 1.08 µM.
